Reference: patent publication EP3381906A1, “COMPOUNDS FOR USE AS HEPARANASE INHIBITORS” (Leadiant Biosciences SA, priority 2017, dated 2018)

Assays:
FGF-1 = experiment: Real-Time Quantitative PCR of pro-angiogenic genes in HT1080 cells; format: cell-based, human; details: 24 h, Conc 2.5 uM
Protocol: (§1) To evaluate the effect of heparanase inhibitors on the tumor transcription of genes encoding for proangiogenic factors, such as FGF1/2, VEGF, MMP-9, HSPE-1, the relative mRNA levels were analyzed by quantitative Real-Time Quantitative PCR. To perform the assay, HT1080 (human fibrosarcoma) cells were cultured in complete medium containing 10%FCS (fetal calf serum). Cells were plated in 24-well plates and treated at fixed concentration (i.e., highest non-toxic concentration) of test compounds. After 24 h, cells were detached, collected and total RNA extracted by RNeasy Mini Kit (QIAGEN). Following reverse transcription step, FGF1/2, VEGF, MMP-9, HSPE-1 mRNA levels, were quantified by qPCR using the advanced Universal SYBR Green Supermix (Bio Rad) and ABI PRISM 7900HT Thermal Cycler System (Perkin Elmer), according to the manufacturer's instructions. Appropriate no-RT and non-template controls were included in each 96-well PCR reaction, and dissociation analysis was performed at the end of each run to confirm the specificity of the reaction. Relative levels of RNA were calculated using the ddCt method. Standard curve and sample data were run in duplicate. In the Table a mean value is reported.

FGF-2 = experiment: as above; format: cell-based, human; details: 24 h, Conc 2.5 uM
Protocol: as §1

VEGF = experiment: as above; format: cell-based, human; details: 24 h, Conc 2.5 uM
Protocol: as §1

MMP-9 = experiment: as above; format: cell-based, human; details: 24 h, Conc 2.5 uM
Protocol: as §1

U2OS = experiment: Matrigel cell invasion assay; format: cell-based, human; details: Homo sapiens, Conc. 2.5 µM
[1] = system: genes encoding for proangiogenic factors, such as FGF1/2, VEGF, MMP-9, HSPE-1; experiment: Real-Time Quantitative PCR in HT1080 cells; format: cell-based, human; details: compared with SST0001 tested at 10 µM
Protocol: as §1

U87MG [2] = experiment: Cell adhesion assay on matrigel coated wells; format: cell-based, human; details: Conc. 2.5 µM, percent of adhesion with respect to the control (100%)
[3] = system: HT1080 (human fibrosarcoma); experiment: Matrigel cell invasion assay; format: cell-based; details: HT-1080, HT1080, Conc. 2.5 µM
Protocol: Heparanase inhibitors were then evaluated for their activity on the invasive potential of HT1080 (human fibrosarcoma) human cell lines, using the Matrigel cell invasion assay which allows to assess the cell invasion ability of malignant and normal cells.
Invasion assay was performed using BioCoat cell culture inserts (BioCoat 8.0µm PET Membrane 24 Well Permeable Supports, Corning). Filters were coated with 100 µl of 300 µg/ml Matrigel dissolved in coating buffer (0.01M Tris pH 8.0, 0.7% NaCl) (Becton-Dickinson Sciences). DMEM (Dulbecco's Modified Eagle's Medium) containing 5% FBS was added to the lower chambers. Cells were pre-treated with heparanase inhibitors for 24 h, detached and added to the upper chambers in media containing the inhibitors. Cells were allowed to invade for 24 h at 37°C in a CO2 incubator and then unmigrated cells were removed from the upper chamber with a cotton swab. The invading cells were fixed, stained with 0.1% crystal violet for 10 min at room temperature, photographed and counted under inverted microscope.
Test compounds were analyzed at fixed concentration for several fields, in duplicates. Activity of test compounds was compared to the reference compound. Activity of most interesting compound was confirmed in a second cell invasion assay. Data were expressed as the percent invasion with respect to cell migration through uncoated insert membrane. (Table 5)

[4] = system: HT1080 (human fibrosarcoma); experiment: Cell adhesion assay on matrigel coated wells; format: cell-based; details: HT1080, Conc. 2.5 µM; percent of adhesion with respect to the control (100%)
Protocol: Cell surface, non-integrin molecules such as heparan sulfate proteoglycans (HSPGs) may be involved in the regulation of early adhesive stages of cell-ECM interactions. A cell adhesion assay has been employed to determine if the newly designed heparanase inhibitors were able to interfere with adhesion properties of cancer cells.
HT1080 (human fibrosarcoma) cells were treated for 18-20 h with test compounds in complete medium supplemented with 10% FCS. Then cells were collected, washed in complete medium, and added to matrigel coated wells in triplicate, at previously identified optimal seeding density, and incubated at 37 °C in complete medium for times ranging from 15 minutes to 4h, according to the cell line. After incubation, the wells were washed three times with serum-free medium and the remaining firmly attached cells were stained with crystal-violet 0.1%. Optical density was measured at 560 nm by Victor 3 (Perkin-Elmer) plate analyzer. Each experiment was repeated three times.

U87MG [5] = experiment: Matrigel cell invasion assay; format: cell-based, human; details: Homo sapiens, U-87 MG, Conc. 2.5 µM

| SMILES | Gene Expression (% mRNA vs. control) FGF-1 (FGF-1) | Gene Expression (% mRNA vs. control) FGF-2 (FGF-2) | Gene Expression (% mRNA vs. control) VEGF (VEGF) | Gene Expression (% mRNA vs. control) MMP-9 (MMP-9) | inhibition at 2.5 µM (U2OS) [%] | potency in silencing gene expression [1] | Adhesion Assay (%) U87MG (U87MG [2]) | inhibition at 2.5 µM [3] [%] | Adhesion Assay (%) HT1080 [4] | inhibition at 2.5 µM (U87MG [5]) [%] |
| --- | --- | --- | --- | --- | --- | --- | --- | --- | --- | --- |
| O=C(O)c1ccc2c(c1)C(=O)N(c1ccc(NC(=O)c3cccc(C(=O)Nc4ccc(N5C(=O)c6ccc(C(=O)O)cc6C5=O)cc4Cl)c3)c(Cl)c1)C2=O [SST0859, 2-[4-[[3-[[4-(5-carboxy-1,3-dioxoisoindol-2-yl)-2-chlorophenyl]carbamoyl]benzoyl]amino]-3-chlorophenyl]-1,3-dioxoisoindole-5-carboxylic acid] | ∼ 67% | ∼ 73% | ∼ 61% | ∼ 40% | 50 to 90 | in the same range of reference compound SST0001 | ∼ 100% | < 50 | ∼ 95% | < 50 |
| O=C(Nc1ccc(-c2nc3ccccc3[nH]2)cc1)c1ccc(C(=O)Nc2ccc(-c3nc4ccccc4[nH]3)cc2)cc1 [SST0856, 1,4-Benzenedicarboxamide, N1,N4-bis[4-(1H-benzimidazol-2-yl)phenyl]-] | ∼ 53% | ∼ 76% | ∼ 54% | ∼ 55% | 50 to 90 | in the same range of reference compound SST0001 | ∼ 99% | < 50 | ∼ 98% | < 50 |
